Publication PMC11790914, “Chemogenomics for steroid hormone receptors (NR3)” (Communications Chemistry, 2025)
Values joined by “and” are separate entries in the source; they are usually repeats but may differ in a detail not shown here. Equal entries are not always repeated.

Assays:
[1] = tested on: HEK293T cells; experiment: Cytotoxicity: necrosis induction (red fluorescent dye for permeable plasma membranes); format: cell-based; conditions: 1 µM, 24 h, necrotic cell count normalized to 0.1% DMSO, single replicates;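 note: compounds applied in DMEM high glucose with 0.1% FCS and 0.1% DMSO, necrotic HEK293T cells counted by red staining of cells whose plasma membranes had become permeable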
[2] = molecular target: T1, ABL1 (Homo sapiens, UniProt P00519); experiment: Liability panel screening by DSF: ABL1; format: binding; conditions: read-out: Mean ΔTM ABL1
T1 construct: made in house
T1 sequence (P00519 whole entry, species assumed): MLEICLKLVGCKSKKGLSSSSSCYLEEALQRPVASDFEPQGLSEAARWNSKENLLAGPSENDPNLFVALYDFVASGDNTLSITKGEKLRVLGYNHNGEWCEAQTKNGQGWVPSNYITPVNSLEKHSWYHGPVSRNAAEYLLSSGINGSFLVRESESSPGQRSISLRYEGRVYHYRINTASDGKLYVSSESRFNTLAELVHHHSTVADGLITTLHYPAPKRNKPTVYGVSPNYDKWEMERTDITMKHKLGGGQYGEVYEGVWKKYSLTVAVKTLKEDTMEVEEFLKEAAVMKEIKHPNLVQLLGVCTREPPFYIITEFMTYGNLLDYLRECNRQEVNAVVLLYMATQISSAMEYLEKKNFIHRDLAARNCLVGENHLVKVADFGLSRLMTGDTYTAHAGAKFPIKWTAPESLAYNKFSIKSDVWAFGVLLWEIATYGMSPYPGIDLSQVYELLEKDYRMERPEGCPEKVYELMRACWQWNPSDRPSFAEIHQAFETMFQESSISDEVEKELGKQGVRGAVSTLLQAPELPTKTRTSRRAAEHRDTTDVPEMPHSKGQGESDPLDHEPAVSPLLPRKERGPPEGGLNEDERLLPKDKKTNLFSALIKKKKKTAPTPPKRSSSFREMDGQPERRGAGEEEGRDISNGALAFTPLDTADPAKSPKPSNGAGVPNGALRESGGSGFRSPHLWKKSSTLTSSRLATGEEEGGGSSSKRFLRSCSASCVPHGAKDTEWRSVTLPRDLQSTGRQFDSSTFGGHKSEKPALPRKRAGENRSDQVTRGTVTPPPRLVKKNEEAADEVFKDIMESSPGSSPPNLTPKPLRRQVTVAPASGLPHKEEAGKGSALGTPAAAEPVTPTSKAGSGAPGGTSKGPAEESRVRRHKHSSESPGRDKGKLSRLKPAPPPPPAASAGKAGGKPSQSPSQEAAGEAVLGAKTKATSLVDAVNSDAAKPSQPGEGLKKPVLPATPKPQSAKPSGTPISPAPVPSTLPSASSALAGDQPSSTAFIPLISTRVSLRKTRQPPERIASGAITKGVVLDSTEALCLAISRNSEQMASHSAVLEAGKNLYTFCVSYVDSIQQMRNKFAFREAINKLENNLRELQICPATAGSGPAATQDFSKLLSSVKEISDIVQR
Procedure, shortened: (§1)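 Recombinant protein at 2 µM in 10 mM HEPES pH 7.5 with 500 mM NaCl was mixed with SYPRO Orange (1:1000) and heated at 3 °C/min up to 85 °C. Tm was taken as the Boltzmann-fit inflection point. Shifts are ∆Tm in K from technical duplicates.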

[3] = molecular target: T2, AURKA (Homo sapiens, UniProt O14965); experiment: Liability panel screening by DSF: AURKA; format: binding; conditions: read-out: Mean ΔTM AURKA
T2 construct: made in house
T2 sequence (O14965 1-403): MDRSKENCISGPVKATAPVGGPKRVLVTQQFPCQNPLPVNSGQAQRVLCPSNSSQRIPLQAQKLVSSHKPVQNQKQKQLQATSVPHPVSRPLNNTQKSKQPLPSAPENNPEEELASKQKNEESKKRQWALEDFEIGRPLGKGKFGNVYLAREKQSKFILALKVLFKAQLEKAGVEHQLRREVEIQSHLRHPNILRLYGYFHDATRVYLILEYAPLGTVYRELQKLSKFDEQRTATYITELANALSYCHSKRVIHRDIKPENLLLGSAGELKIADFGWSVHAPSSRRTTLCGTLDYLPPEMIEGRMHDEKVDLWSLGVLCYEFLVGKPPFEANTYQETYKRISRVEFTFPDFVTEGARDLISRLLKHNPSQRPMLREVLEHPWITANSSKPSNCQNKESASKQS
Procedure, shortened: as §1

[4] = molecular target: T3, CDK2 (Homo sapiens, UniProt P24941); experiment: Liability panel screening by DSF: CDK2; format: binding; conditions: read-out: Mean ΔTM CDK2
T3 construct: made in house
Procedure, shortened: as §1

[5] = molecular target: T4, FGFR3 (Homo sapiens, UniProt P22607); experiment: Liability panel screening by DSF: FGFR3; format: binding; conditions: read-out: Mean ΔTM FGFR3
T4 construct: made in house
T4 sequence (P22607 23-806, species assumed): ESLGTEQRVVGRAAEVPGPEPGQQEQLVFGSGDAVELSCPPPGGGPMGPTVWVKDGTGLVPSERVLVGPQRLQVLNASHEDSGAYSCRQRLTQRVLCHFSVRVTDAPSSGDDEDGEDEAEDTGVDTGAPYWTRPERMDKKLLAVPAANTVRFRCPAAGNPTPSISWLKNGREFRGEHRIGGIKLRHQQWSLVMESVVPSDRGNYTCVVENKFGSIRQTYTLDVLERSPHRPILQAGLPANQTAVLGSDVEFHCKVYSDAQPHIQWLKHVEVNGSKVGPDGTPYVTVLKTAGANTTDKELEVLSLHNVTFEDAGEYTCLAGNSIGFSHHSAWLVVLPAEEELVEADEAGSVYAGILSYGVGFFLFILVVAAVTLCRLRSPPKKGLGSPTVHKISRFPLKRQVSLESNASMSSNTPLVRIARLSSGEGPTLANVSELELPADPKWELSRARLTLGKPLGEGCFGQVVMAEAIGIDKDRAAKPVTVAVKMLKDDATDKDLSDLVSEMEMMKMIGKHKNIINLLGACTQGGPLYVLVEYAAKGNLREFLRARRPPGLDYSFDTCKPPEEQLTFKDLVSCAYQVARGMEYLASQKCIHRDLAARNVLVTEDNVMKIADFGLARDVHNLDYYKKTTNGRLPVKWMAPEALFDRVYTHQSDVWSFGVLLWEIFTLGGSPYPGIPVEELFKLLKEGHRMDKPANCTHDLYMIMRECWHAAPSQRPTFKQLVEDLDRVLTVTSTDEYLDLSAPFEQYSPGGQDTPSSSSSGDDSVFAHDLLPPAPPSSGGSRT
Procedure, shortened: as §1

[6] = molecular target: T5, GSK3B (Homo sapiens, UniProt P49841); experiment: Liability panel screening by DSF: GSK3B; format: binding; conditions: read-out: Mean ΔTM GSK3B
T5 construct: made in house
T5 sequence (P49841 whole entry, species assumed): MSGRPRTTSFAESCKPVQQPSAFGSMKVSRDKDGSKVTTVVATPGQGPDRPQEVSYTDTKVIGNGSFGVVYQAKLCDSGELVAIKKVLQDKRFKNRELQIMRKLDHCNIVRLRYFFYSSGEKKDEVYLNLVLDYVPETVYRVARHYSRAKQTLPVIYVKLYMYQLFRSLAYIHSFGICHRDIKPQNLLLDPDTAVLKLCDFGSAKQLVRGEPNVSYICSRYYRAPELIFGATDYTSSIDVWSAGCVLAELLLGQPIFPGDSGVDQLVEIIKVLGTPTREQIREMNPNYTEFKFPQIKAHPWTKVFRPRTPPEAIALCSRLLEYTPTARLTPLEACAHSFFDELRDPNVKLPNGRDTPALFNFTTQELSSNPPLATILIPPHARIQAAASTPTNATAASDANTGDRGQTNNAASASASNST

[7] = molecular target: T6, BRD4 (Homo sapiens, UniProt O60885); experiment: Liability panel screening by DSF: BRD4; format: binding; conditions: read-out: Mean ΔTM BRD4
T6 construct: This panel comprised ten highly ligandable kinases and bromodomains; made in house
Procedure, shortened: as §1

[8] = molecular target: T7, BRPF1 (Homo sapiens, UniProt P55201); experiment: Liability panel screening by DSF: BRPF1; format: binding; conditions: read-out: Mean ΔTM BRPF1
T7 construct: This panel comprised ten highly ligandable kinases and bromodomains; made in house
T7 sequence (P55201 628-732 limits assumed): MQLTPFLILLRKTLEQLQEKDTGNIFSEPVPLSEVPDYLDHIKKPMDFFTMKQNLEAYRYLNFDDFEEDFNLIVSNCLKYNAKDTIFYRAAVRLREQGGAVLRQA
Procedure, shortened: as §1

[9] = molecular target: T8, CSNK1D (Homo sapiens, UniProt P48730); experiment: Liability panel screening by DSF: CSNK1D; format: binding; conditions: read-out: Mean ΔTM CSNK1D
T8 construct: made in house
T8 sequence (P48730 whole entry, species assumed): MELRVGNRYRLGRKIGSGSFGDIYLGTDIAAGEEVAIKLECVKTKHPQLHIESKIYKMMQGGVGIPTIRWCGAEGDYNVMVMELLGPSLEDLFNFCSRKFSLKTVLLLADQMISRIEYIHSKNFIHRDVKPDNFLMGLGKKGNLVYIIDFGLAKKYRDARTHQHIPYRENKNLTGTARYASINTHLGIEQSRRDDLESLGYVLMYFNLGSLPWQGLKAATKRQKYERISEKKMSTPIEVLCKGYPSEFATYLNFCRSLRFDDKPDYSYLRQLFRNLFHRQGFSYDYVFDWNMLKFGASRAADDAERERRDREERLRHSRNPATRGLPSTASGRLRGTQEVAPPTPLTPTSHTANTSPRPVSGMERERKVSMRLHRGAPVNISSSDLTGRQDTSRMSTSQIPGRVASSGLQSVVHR
Procedure, shortened: as §1

[10] = molecular target: T9, MAPK1 (Homo sapiens, UniProt P28482); experiment: Liability panel screening by DSF: MAPK1; format: binding; conditions: read-out: Mean ΔTM MAPK1
T9 construct: made in house
T9 sequence (P28482 whole entry, species assumed): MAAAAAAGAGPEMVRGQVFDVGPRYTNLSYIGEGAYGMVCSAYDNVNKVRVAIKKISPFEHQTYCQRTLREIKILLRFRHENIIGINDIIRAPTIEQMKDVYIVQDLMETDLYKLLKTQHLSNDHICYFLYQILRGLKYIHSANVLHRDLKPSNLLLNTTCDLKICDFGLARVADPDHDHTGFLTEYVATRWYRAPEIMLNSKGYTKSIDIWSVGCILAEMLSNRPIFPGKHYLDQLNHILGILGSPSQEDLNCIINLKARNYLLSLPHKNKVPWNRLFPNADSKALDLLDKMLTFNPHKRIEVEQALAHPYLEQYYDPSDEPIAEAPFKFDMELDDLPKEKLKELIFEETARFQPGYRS
Procedure, shortened: as §1

[11] = molecular target: T10, TRIM24 (Homo sapiens, UniProt O15164); experiment: Liability panel screening by DSF: TRIM24; format: binding; conditions: read-out: Mean ΔTM TRIM24
T10 construct: This panel comprised ten highly ligandable kinases and bromodomains; made in house
T10 sequence (O15164 899-1004 limits assumed): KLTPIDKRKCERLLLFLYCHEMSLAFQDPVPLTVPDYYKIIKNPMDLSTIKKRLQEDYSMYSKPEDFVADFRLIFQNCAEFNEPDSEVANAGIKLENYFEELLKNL
Procedure, shortened: as §1

[12] = tested on: NF-κB activity in HEK293 NF-κB reporter cells; experiment: NF-kB activity assay (GFP reporter, ionomycin/PMA); format: cell-based; conditions: n=3
Procedure, shortened: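 Reporter readout: GFP-expressing cells normalized to confluence, imaged every 90 min across 24 h after ionomycin (100 ng/mL)/PMA (10 ng/mL) stimulation of HEK293 cells pre-treated 4 h with compound (0.1% DMSO); triplicate independent experiments.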

[13] = tested on: ATF6 activity in Hela ATF6 reporter cells; experiment: Endoplasmic reticulum stress assay (ATF6 Renilla luciferase reporter, tunicamycin); format: cell-based; conditions: Homo sapiens, HeLa, 1 µM, single replicates n=1 to n=5; read-out: ER stress [rel. ATF6 activity]
Procedure, shortened: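 ER stress was induced by 100 ng/mL tunicamycin added 4 h after compound (0.1% DMSO) to HeLa ATF6 reporter cells. After 18 h more, Renilla luciferase signal was read and expressed relative to DMSO control, n=5 biological replicates.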

[14] = tested on: NR3C1 (GR); conditions: (lit.); ref Supplementary Table 1; read-out: Potency [nM] EC50, NR3C1 (GR); cited from earlier work
[15] = tested on: NR3C2 (MR); conditions: (lit.); ref Supplementary Table 1; read-out: Potency [nM] EC50, NR3C2 (MR); cited from earlier work
[16] = tested on: NR3C3 (PR); conditions: (lit.); ref Supplementary Table 1; read-out: Potency [nM] EC50, NR3C3 (PR); cited from earlier work
[17] = tested on: NR3C4 (AR); conditions: read-out: Potency [nM] EC50, NR3C4 (AR); cited from earlier work
[18] = tested on: HEK293T cells; experiment: Cytotoxicity: metabolic activity (WST-8 / CCK-8 assay); conditions: 1 µM; HEK293T, 24 h; WST-8; normalized to 0.1% DMSO; single replicates
[19] = tested on: HEK293T cells; experiment: Cytotoxicity: growth-rate (change in confluence over 24 h); conditions: 1 µM, normalized to 0.1% DMSO control, single replicates (n=1...)
[20] = tested on: HEK293T cells; experiment: Cytotoxicity: apoptosis induction (caspase-3/7 DEVD fluorogenic DNA dye); conditions: 1 µM; HEK293T, 24 h; apoptotic cell count normalized to 0.1% DMSO; single replicates
Experimental: Cells were incubated with the test compounds at the indicated concentrations solubilized with 0.1% DMSO for 24 h. Growth-rate was determined based on the change in confluence over 24 h normalized to the change in confluence of cells treated with the 0.1% DMSO control (n = 10). Metabolic activity was determined with a water-soluble tetrazolium-8 (WST-8) assay (n = 8) after 24 h treatment. Apoptotic cells were detected with a fluorogenic DNA dye coupled to the caspase-3/7 recognition sequence (DEVD) after 24 h treatment and the apoptotic cell count was normalized to 0.1% DMSO treated cells (n = 6).
HEK293T cells (German Collection of Microorganisms and Cell Culture GmbH, DSMZ; #ACC305) were cultured in DMEM high glucose, supplemented with 10% fetal calf serum (FCS), sodium pyruvate (1 mM), penicillin (100 µ/mL) and streptomycin (100 µg/mL) at 37 °C and 5% (v/v) CO2, and seeded in pre-coated (10 µg/mL collagen G solution (Merck KgaA; #L7213) for 30 min at 37 °C) 96-well plates (2 × 10^5 cells per well). After 24 h, the cells were treated with the respective NR3 CG compound candidate at the recommended concentration, bexarotene (100 µM) or doxorubicin (30 µM) as positive controls in DMEM high glucose supplemented with 0.1% FCS, penicillin (100 µ/mL), streptomycin (100 µg/mL) and 0.1% DMSO, or 0.1% DMSO alone as an untreated control. Each sample was prepared in at least four biologically independent replicates. […] Thereafter, the medium was aspirated and the cells were incubated for 3 h with 90 µL DMEM high glucose supplemented with 0.2% FCS, penicillin (100 µ/mL) and streptomycin (100 µg/mL) and additionally containing 10 µL Cell Counting Kit 8 solution (CCK-8; MedChemExpress, Monmouth Junction, New York, USA; #HY-K0301), and absorbance was measured at 1 h, 2 h and 3 h of incubation at 450 nm on a Tecan Spark Cyto to assess metabolic activity of the cells. Before drug administration, after the first medium exchange, 24 h after drug administration, and after fluorescence imaging cell confluence was assessed using the Tecan Spark Cyto, to account for changes in cell confluence due to drug administration and cell handling. Compound effects on cell confluence, apoptosis, metabolic activity and necrosis were normalized to the vehicle control of each biological replicate individually.

SMILES: C[C@]1(O)CC[C@H]2[C@@H]3CCC4=CC(=O)CCC4=C3C=C[C@@]21C [Methyltrienolone]
- Necrosis induction [NI] [1]: 0.85 and 1.01 and 0.97 and 1.35
- ΔTm at 20 µM [2]: 0.42 °C
- ΔTm at 20 µM [3]: 0.08 °C
- ΔTm at 20 µM [4]: -0.06 °C
- ΔTm at 20 µM [5]: 0.15 °C
- ΔTm at 20 µM [6]: -0.24 °C
- ΔTm at 20 µM [7]: -0.94 °C
- ΔTm at 20 µM [8]: -1.21 °C
- ΔTm at 20 µM [9]: -0.05 °C
- ΔTm at 20 µM [10]: -0.02 °C
- ΔTm at 20 µM [11]: -0.03 °C
- Mean NFκB response ([12]; 1 µM, 1,5 h): 3531.33 GFP+-cells/confluence ∙ 1000
- Mean NFκB response ([12]; 1 µM, 4,5 h): 3781.33 GFP+-cells/confluence ∙ 1000
- Mean NFκB response ([12]; 1 µM, 7,5 h): 7660.67 GFP+-cells/confluence ∙ 1000
- Mean NFκB response ([12]; 1 µM, 10,5 h): 17176.00 GFP+-cells/confluence ∙ 1000
- Mean NFκB response ([12]; 1 µM, 13,5 h): 24525.33 GFP+-cells/confluence ∙ 1000
- Mean NFκB response ([12]; 1 µM, 16,6 h): 30685.33 GFP+-cells/confluence ∙ 1000
- Mean NFκB response ([12]; 1 µM, 19,5 h): 34386.67 GFP+-cells/confluence ∙ 1000
- Mean NFκB response ([12]; 1 µM, 22,5 h): 37650.00 GFP+-cells/confluence ∙ 1000
- Mean NFκB response ([12]; 1 µM, 3 h): 3552.67 GFP+-cells/confluence ∙ 1000
- Mean NFκB response ([12]; 1 µM, 6 h): 4781.67 GFP+-cells/confluence ∙ 1000
- Mean NFκB response ([12]; 1 µM, 9 h): 12656.33 GFP+-cells/confluence ∙ 1000
- Mean NFκB response ([12]; 1 µM, 12 h): 21183.67 GFP+-cells/confluence ∙ 1000
- Mean NFκB response ([12]; 1 µM, 15 h): 28114.67 GFP+-cells/confluence ∙ 1000
- Mean NFκB response ([12]; 1 µM, 18 h): 32970.33 GFP+-cells/confluence ∙ 1000
- Mean NFκB response ([12]; 1 µM, 21 h): 36266.67 GFP+-cells/confluence ∙ 1000
- Mean NFκB response ([12]; 1 µM, 24 h): 38486.67 GFP+-cells/confluence ∙ 1000
- activity at 1 µM [13]: 100%
- EC50 [14]: 10 ± 4 nM
- EC50 [15]: 0.5 ± 0.1 nM
- EC50 [16]: 0.5 ± 0.3 nM
- EC50 [17]: 0.01 ± 0.01 nM
- Metabolic activity [MA] [18]: 0.98 and 1.02 and 0.97 (2×) and 1.07 and 1.05 and 1.13 and 1.10
- Growth rate [GR] [19]: 0.54 and 2.52 and 1.01 and 1.07 and 0.85 and 1.02 and 1.00 and 1.19 and 1.25 and 1.79
- Apoptosis induction [AI] [20]: 0.87 and 1.36 and 0.90 and 1.12 and 0.53 and 0.75
